Source: ChEMBL document CHEMBL5131455 (Bioorg Med Chem Lett, 2022)
In brackets after ≈: the same amount, converted by molar mass.

How the values were obtained:
[1] = Apparent permeability in MDCK cells; format: ADME, cell-based, Canis lupus familiaris; conditions: dog, MDCK-MDR1
[2] = Drug uptake in female rat central nervous system at 30 mg/kg, po; format: ADME, organism-based; conditions: in vivo
[3] = AUC (0 to 8 hrs) in rat plasma at 30 mg/kg, po relative to radioactivity of 14-C AUC; format: ADME, organism-based; conditions: in vivo
[4] = Solubility of the compound in pH 1 0.1N HCl buffer incubated up to 72 hrs by shake flask method; format: physicochemical
[5] = Drug uptake in male rat central nervous system at 30 mg/kg, po; format: ADME, organism-based; conditions: in vivo, BLD = below limit of detection
[6] = AUC (0 to 8 hrs) in human plasma at 80 mg, po qd administered as water suspension by HPLC analysis relative to radioactivity of 14-C AUC; format: ADME, organism-based; conditions: in vivo
[7] = Solubility of the compound in chloride free pH 6.8 phosphate buffer incubated up to 72 hrs by shake flask method; format: physicochemical
[8] = AUC in rat plasma at 30 mg/kg, po in presence of [14-C]asciminib relative to radioactivity of [14-C] AUC; format: ADME, organism-based; conditions: in vivo
[9] = target: Voltage-gated inwardly rectifying potassium channel KCNH2 (Homo sapiens, UniProt Q12809); experiment: Displacement of [3H]dofetilide from human ERG expressed in HEK293 cells measured after 45 mins by topcount scintillation counting method; format: toxicity, cell-based
Sequence of Voltage-gated inwardly rectifying potassium channel KCNH2 (Q12809 whole entry): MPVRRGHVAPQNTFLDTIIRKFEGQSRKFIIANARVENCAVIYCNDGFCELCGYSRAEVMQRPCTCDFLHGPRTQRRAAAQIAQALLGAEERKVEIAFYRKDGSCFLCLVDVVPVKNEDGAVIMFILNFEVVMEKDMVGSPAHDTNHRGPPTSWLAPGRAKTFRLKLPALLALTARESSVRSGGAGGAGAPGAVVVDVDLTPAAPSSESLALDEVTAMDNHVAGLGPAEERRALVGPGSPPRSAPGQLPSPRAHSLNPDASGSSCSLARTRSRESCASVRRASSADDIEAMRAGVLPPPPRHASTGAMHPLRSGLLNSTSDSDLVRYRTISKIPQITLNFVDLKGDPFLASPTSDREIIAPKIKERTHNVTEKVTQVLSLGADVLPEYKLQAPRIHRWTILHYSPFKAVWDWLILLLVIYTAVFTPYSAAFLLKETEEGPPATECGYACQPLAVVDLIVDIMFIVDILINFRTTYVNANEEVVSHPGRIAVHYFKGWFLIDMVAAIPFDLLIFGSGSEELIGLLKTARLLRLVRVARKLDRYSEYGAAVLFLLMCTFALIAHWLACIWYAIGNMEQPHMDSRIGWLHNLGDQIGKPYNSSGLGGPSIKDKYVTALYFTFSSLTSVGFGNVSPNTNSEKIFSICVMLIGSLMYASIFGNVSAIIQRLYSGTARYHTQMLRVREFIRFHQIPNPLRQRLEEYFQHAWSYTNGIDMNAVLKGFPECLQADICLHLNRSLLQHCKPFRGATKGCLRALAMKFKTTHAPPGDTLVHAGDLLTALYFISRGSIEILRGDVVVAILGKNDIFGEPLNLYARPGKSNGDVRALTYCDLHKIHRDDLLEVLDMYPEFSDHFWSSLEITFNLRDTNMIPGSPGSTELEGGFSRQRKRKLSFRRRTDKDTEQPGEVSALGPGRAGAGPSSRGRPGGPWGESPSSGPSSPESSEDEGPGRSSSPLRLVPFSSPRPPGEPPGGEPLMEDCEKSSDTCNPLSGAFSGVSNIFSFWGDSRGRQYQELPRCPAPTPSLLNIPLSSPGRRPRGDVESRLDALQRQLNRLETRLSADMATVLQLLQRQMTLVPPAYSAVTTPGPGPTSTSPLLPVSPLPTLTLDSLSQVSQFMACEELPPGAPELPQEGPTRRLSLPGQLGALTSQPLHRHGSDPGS

hERG (KCNH2) = hERG (KCNH2) (Homo sapiens, UniProt Q12809); experiment: Displacement of [3H]dofetilide from human ERG expressed in HEK293 cells at 30 uM measured after 45 mins by topcount scintillation counting method relative to control; format: toxicity, cell-based; conditions: HEK293 cells that express hERG, probe [3H]dofetilide
Sequence of hERG (KCNH2) (Q12809 whole entry): as above

[10] = Efflux ratio of apparent permeability across basolateral to apical side over apical to basolateral side in human Caco2 cells; format: ADME, cell-based; conditions: Caco-2
[11] = Ratio of drug level in C57BL/6 mouse blood to brain at 1 mg/kg, iv measured after 5 mins; format: ADME, organism-based; conditions: in vivo
[12] = Intrinsic clearance in human liver microsomes; format: ADME, Microsome; conditions: read-out: CLH
[13] = Ratio of drug level in C57BL/6 mouse blood to brain at 30 mg/kg, ip measured at 4 hrs; format: ADME, organism-based; conditions: in vivo
[14] = Tmax in C57BL/6 mouse at 30 mg/kg, po; format: ADME, organism-based; conditions: in vivo
[15] = Dose normalized AUC (infinity) in C57BL/6 mouse blood at 30 mg/kg, po; format: ADME, organism-based; conditions: in vivo
[16] = Unbound brain to plasma concentration ratio in C57BL/6 mouse brain at 30 mg/kg, ip; format: ADME, organism-based; conditions: brain and plasma, read-out: K(p,uu,brain)
Mu-type opioid receptor [17] = target: T1, Mu-type opioid receptor (Homo sapiens, UniProt P35372); experiment: Displacement of [3H]morphine binding to recombinant human full-length MOR expressed in CHO-K1 cells measured after 60 mins by scintillation counting analysis; format: cell-based
T1 sequence (P35372 whole entry): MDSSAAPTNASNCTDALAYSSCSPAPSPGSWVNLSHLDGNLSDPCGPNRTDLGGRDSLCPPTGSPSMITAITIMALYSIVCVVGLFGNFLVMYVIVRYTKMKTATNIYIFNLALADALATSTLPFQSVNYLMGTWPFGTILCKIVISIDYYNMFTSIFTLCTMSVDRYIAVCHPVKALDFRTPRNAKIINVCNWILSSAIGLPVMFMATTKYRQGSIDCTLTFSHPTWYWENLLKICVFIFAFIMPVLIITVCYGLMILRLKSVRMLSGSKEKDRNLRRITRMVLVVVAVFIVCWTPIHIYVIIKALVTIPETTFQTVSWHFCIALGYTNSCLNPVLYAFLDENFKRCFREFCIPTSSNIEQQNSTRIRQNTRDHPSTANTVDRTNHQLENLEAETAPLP

[18] = Clearance in C57BL/6 mouse at 1 mg/kg, iv; format: ADME, organism-based; conditions: in vivo
BaF3 = experiment: Antiproliferative activity against mouse BaF3 cells expressing BCR-ABL by ATP-luminescence assay; format: functional, cell-based
[19] = Apparent permeability across basolateral to apical side in human Caco-2 cells; format: ADME, cell-based
[20] = Ratio of drug level in C57BL/6 mouse blood to brain at 10 mg/kg, ip measured at 4 hrs; format: ADME, organism-based; conditions: in vivo
[21] = Apparent permeability across apical to basolateral side in human Caco-2 cells; format: ADME, cell-based
[22] = Tmax in C57BL/6 mouse at 30 mg/kg, ip; format: ADME, organism-based; conditions: in vivo
[23] = Antiproliferative activity against human SNU-213 cells measured after 72 hrs by celltiter-glo luminescent cell viability assay; format: functional, cell-based
[24] = Antiproliferative activity against human CMK-86 cells measured after 72 hrs by celltiter-glo luminescent cell viability assay; format: functional, cell-based
[25] = Dose normalized AUC (infinity) in C57BL/6 mouse at 1 mg/kg, iv; format: ADME, organism-based; conditions: in vivo
[26] = Dose normalized AUC (infinity) in C57BL/6 mouse brain at 30 mg/kg, ip; format: ADME, organism-based; conditions: in vivo
Mu-type opioid receptor [27] = target: T1, Mu-type opioid receptor; experiment: Displacement of [3H]morphine binding to recombinant human full-length MOR expressed in CHO-K1 cells at 30 uM measured after 60 mins by scintillation counting analysis relative to control; format: cell-based
[28] = Intrinsic clearance in rat liver microsomes; format: ADME, Microsome; conditions: read-out: CLH
[29] = target: Tyrosine-protein kinase ABL1 (Homo sapiens, UniProt P00519); experiment: Inhibition of transphosphorylation of ABL1 SH1-3 domain (64 to 515 residues) (unknown origin) expressed in Escherichia coli using FITC-Ahx-EAIYAAPFAKKK-NH2) as substrate measured after 60 mins by caliper method
Sequence of Tyrosine-protein kinase ABL1 (P00519 whole entry, the tested form may be a part): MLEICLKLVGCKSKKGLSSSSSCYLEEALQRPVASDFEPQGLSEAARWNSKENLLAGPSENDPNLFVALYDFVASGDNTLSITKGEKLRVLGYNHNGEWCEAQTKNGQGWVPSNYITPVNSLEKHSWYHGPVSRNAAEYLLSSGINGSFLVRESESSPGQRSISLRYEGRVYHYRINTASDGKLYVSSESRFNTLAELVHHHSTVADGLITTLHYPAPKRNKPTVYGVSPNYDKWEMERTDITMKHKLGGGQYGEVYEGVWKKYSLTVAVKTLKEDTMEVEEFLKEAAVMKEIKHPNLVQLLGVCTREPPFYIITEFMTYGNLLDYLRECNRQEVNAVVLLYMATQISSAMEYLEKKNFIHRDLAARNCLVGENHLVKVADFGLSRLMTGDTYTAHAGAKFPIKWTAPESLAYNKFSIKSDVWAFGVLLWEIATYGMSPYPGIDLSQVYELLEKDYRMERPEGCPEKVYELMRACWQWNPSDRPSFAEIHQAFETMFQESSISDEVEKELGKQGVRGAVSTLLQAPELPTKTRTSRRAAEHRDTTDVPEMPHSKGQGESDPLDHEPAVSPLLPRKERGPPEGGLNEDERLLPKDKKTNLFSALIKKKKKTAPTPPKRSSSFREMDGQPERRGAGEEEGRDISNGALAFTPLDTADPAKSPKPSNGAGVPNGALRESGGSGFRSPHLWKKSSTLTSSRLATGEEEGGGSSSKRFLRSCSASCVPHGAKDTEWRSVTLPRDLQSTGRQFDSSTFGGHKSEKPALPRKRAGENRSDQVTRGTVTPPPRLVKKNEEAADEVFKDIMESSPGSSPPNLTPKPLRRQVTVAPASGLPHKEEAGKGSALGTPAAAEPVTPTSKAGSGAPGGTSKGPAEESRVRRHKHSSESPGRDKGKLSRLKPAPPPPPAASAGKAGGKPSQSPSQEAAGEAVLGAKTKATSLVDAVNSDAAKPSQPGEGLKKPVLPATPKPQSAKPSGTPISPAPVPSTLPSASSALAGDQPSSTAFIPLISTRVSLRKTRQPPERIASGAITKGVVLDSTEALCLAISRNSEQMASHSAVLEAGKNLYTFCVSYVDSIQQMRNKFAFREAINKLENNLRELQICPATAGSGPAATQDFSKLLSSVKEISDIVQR

[30] = Volume of distribution at steady state in C57BL/6 mouse at 1 mg/kg, iv; format: ADME, organism-based; conditions: in vivo, read-out: Vdss
[31] = Drug level in C57BL/6 mouse brain at 30 mg/kg, ip measured at 4 hrs; format: ADME, organism-based; conditions: read-out: Drug uptake
[32] = Antiproliferative activity against human KBM-7 cells measured after 72 hrs by celltiter-glo luminescent cell viability assay; format: functional, cell-based
[33] = Dose normalized Cmax in C57BL/6 mouse at 30 mg/kg, ip; format: ADME, organism-based; conditions: in vivo
[34] = Dose normalized Cmax in C57BL/6 mouse at 30 mg/kg, po; format: ADME, organism-based; conditions: in vivo
[35] = Ratio of drug level in C57BL/6 mouse brain at 30 mg/kg, ip to IC50 for antiproliferative activity against mouse BaF3 cells expressing BCR-ABL by ATP-luminescence assay; format: organism-based; conditions: in vivo
[36] = Dose normalized AUC (infinity) in C57BL/6 mouse blood at 30 mg/kg, ip; format: ADME, organism-based; conditions: in vivo
[37] = Antiproliferative activity against human Fu97 cells measured after 72 hrs by celltiter-glo luminescent cell viability assay; format: functional, cell-based
[38] = Half life in C57BL/6 mouse at 1 mg/kg, iv; format: ADME, organism-based; conditions: in vivo
[39] = Intrinsic clearance in mouse liver microsomes; format: ADME, Microsome; conditions: read-out: CLH
[40] = Intrinsic clearance in dog liver microsomes; format: ADME, Canis lupus familiaris, Microsome; conditions: read-out: CLH
MDR1 = experiment: Efflux ratio of apparent permeability across basolateral to apical side over apical to basolateral side in MDCK-MDR1 cells; format: ADME, cell-based, Canis lupus familiaris; conditions: dog
[41] = Dose normalized AUC (infinity) in C57BL/6 mouse brain at 10 mg/kg, ip measured up to 4 hrs; format: ADME, organism-based; conditions: in vivo

O=C(Nc1ccc(OC(F)(F)Cl)cc1)c1cnc(N2CC[C@@H](O)C2)c(-c2ccn[nH]2)c1 [ASCIMINIB]
Papp [1]: 21.1 ×10⁻⁶ cm/s | Drug uptake [2]: Active | Drug uptake [3]: 86% | solubility thermodynamic at 72 h [4]: > 1500 µg/mL | Drug uptake [5]: Bld | Drug uptake [6]: 92.7% | solubility thermodynamic at 72 h [7]: 4 µg/mL (≈ 8.89 µM)

O=C1CCN(c2ncc(C(=O)Nc3ccc(OC(F)(F)Cl)cc3)cc2-c2ccn[nH]2)C1
Drug uptake [8]: 1.88%

O=C(Nc1ccc(OC(F)(F)Cl)cc1)c1cnc(NCCC(O)CO)c(-c2ccn[nH]2)c1 (stereo not drawn)
Drug uptake [8]: 0.39%

O=C(Nc1ccc(OC(F)(F)F)cc1)c1cncc(-c2cccnc2)c1
AC50 [9]: 2800 nM | inhibition at 0.75 h, 30 µM (hERG (KCNH2)): > 50% | efflux ratio [10]: 0.41 | Papp [1]: 24.5 ×10⁻⁶ cm/s | Ratio [11]: 3.29 | CLint scaled [12]: 16 mL/min/kg | Ratio [13]: 2.65 | Tmax [14]: 1 h | AUC/dose [15]: 5139 nM·h | Kp uu [16]: 0.91 | AC50 (Mu-type opioid receptor [17]): 9780 nM | clearance [18]: 17 mL/min/kg | GI50 (BaF3): 69 nM | IC50 (BaF3): 75 nM | Papp B→A [19]: 11.1 ×10⁻⁶ cm/s | Ratio [20]: 2.32 | Papp A→B [21]: 27.1 ×10⁻⁶ cm/s | Tmax [22]: 1.8 h | IC50 ([23]; Homo sapiens, SNU-213, 72 h): 25000 nM | %max ([23]; time 72 hrs): 62% | IC50 ([24]; Homo sapiens, CMK-86, 72 h): 1600 nM | %max ([24]; time 72 hrs): 62% | AUC/dose [25]: 2875 nM·h | AUC/dose [26]: 27926 nM·h | inhibition (Mu-type opioid receptor [27]): > 50% | CLint scaled [28]: 56 mL/min/kg | solubility thermodynamic at 72 h [4]: > 1500 µg/mL | IC50 [29]: 33 nM | Vd [30]: 1.2 L/kg | concentration at 4 h [31]: 34.9 µM | IC50 ([32]; Homo sapiens, KBM-7, 72 h): 197 nM | %max ([32]; time 72 hrs): 98% | Cmax/dose [33]: 0.643 µM | Cmax/dose [34]: 0.629 µM | Ratio [35]: 465 | AUC/dose [36]: 6672 nM·h | IC50 ([37]; Homo sapiens, Fu97, 72 h): > 30000 nM | %max ([37]; time 72 hrs): 55% | half-life [38]: 0.9 h | CLint scaled [39]: 31 mL/min/kg | CLint scaled [40]: 30 mL/min/kg | efflux ratio (MDR1): 1.03 | solubility thermodynamic at 72 h [7]: 3 µg/mL (≈ 8.35 µM) | AUC/dose [41]: 15720 nM·h
